Laboratory results reported in article PMC10870044, “The Interplay Between HIF‐1α and EZH2 in Lung Cancer and Dual‐Targeted Drug Therapy” (Advanced Science, 2023).

Tests used:
[1] = tested on: A549/DR and H460/DR cells; assay: CCK-8 cytotoxicity, resistance ratio in dual drug-resistant cells; assay type: cell-based, Human; details: A549/DR and H460/DR vs parental
Method: Cells (4 × 10^3per well) were seeded into a 96‐well plate and cultured at 37°C in a 5% CO2 incubator. After 24 h, different concentrations of 2‐ME2 were put into wells which ranged from 0.01 to 100 µM with a minimum of three technical replicates. After 72 h, 10 µl CCK‐8 (MCE, NY, USA) was added to each well and incubated for an additional 4 h at 37°C in a 5% CO2 incubator. Then, […]. The optical density values were measured at 450 nm using a microplate reader (Molecular Devices, San Jose, CA, USA).

[2] = tested on: A549/DR cells; assay: Annexin V-FITC/PI apoptosis assay; assay type: cell-based, Human; details: 48 h exposure
Method: (§1) After incubation for 48 h, cells were harvested by centrifugation and washed twice in PBS. Then stained the cells according to the FITC Annexin V Apoptosis Detection Kit II (BD Biosciences, USA). Control cells stained with Annexin‐V or PI alone were used to compensate for flow cytometric analysis. Viable cells were those with both Annexin‐V and PI‐double negative staining. Annexin‐V‐positive and PI‐negative cells were defined as early apoptotic cells, and Annexin‐V and PI‐double‐positive cells were defined as late apoptotic cells.

[3] = tested on: H460/DR cells; assay: Annexin V-FITC/PI apoptosis assay; assay type: cell-based, Human; details: 48 h exposure
Method: as §1

[4] = tested on: multiple myeloma; parameters: method as in PMID 20499131, PMID 17947482, PMID 16832603, PMID 16197617; details: sixty patients with multiple myeloma, phase II study; ref [15], [16], [17], [18]; cited from earlier work
[5] = tested on: HIF‐1; assay: HIF-1 luciferase reporter gene assay (U251-HRE / U251-PGL3); assay type: cell-based; details: hypoxic environments, compared to the control group
Method: HIF‐1 activity was assessed in U251‐HRE and U251‐PGL3 using a 96‐well format. Cells were rinsed twice with ice‐cold PBS, lysed with 200 µl of passive lysis buffer (Promega, Wisconsin, USA), and incubated at room temperature for 10 min. Lysates were centrifuged and stored at −80°C until assayed. Luciferase assays were conducted by pipetting 20 µl of cell lysate into each well of a 96‐well plate and analyzed immediately after adding the luciferase reagent (Promega) in a multi‐mode microplate reader (Centro LB960, Berthold, Germany).

[6] = tested on: A549/2‐ME2 and H460/2‐ME2 cells; assay: Epigenetics Compound Library screen in HIF-1 inhibitor-resistant cells; assay type: cell-based, Human
[7] = tested on: HIF‐1α; assay: Western blot of HIF-1α after EZH2 inhibitors; assay type: cell-based; details: compared to the control group

COc1cc2c(cc1O)CC[C@@H]1[C@@H]2CC[C@]2(C)[C@@H](O)CC[C@@H]12 [2‐ME2, 2‐methoxy estradiol]
resistance ratio (RI) of the IC50 in drug‐resistant cells compared to the IC50 in parental cells [1]: ≈ 4
apoptotic cell population [2]: much lower
apoptotic cell population [3]: much lower
objective response in patients [4]: no objective response

CCN(c1cc(-c2ccc(CN3CCOCC3)cc2)cc(C(=O)NCc2c(C)cc(C)[nH]c2=O)c1C)C1CCOCC1 [EPZ6438]
luciferase activity in U251 [5]: promoted luciferase activity
sensitivity of resistant cells compared to the parental cells [6]: more sensitive

CCN(c1cc(C#CCN2CCOCC2)cc(C(=O)NCc2c(C)cc(C)[nH]c2=O)c1C)[C@H]1CC[C@H](N(C)CCOC)CC1 [EPZ011989]
sensitivity of resistant cells compared to the parental cells [6]: more sensitive

CC[C@H](C)n1cc(C)c2c(C(=O)NCc3c(C)cc(C)[nH]c3=O)cc(-c3ccc(N4CCNCC4)nc3)cc21 [GSK126]
luciferase activity in U251 [5]: promoted luciferase activity
resistance ratio (RI) of the IC50 in drug‐resistant cells compared to the IC50 in parental cells [1]: ≈ 4
apoptotic cell population [2]: much lower
apoptotic cell population [3]: much lower
sensitivity of resistant cells compared to the parental cells [6]: more sensitive
HIF‐1α protein levels [7]: significantly higher levels of HIF‐1α protein
